Experimental data: ChEMBL document CHEMBL3124816, “Preparation and optimization of new 4-(2-(indolin-1-yl)-2-oxoethyl)-2-morpholinothiazole-5-carboxylic acid and amide derivatives as potent and selective PI3Kβ inhibitors” (Bioorg Med Chem Lett, 2014)
In brackets after ≈: the same amount, converted by molar mass. Activity calls are given as the source filed them. No cut-off for these calls is given here.

How the values were obtained:
[1] = biological target: T1, Phosphatidylinositol 4,5-bisphosphate 3-kinase catalytic subunit beta isoform (Homo sapiens, UniProt P42338); test: Inhibition of human PI3Kbeta after 15 mins
T1 sequence (P42338 whole entry, canonical isoform): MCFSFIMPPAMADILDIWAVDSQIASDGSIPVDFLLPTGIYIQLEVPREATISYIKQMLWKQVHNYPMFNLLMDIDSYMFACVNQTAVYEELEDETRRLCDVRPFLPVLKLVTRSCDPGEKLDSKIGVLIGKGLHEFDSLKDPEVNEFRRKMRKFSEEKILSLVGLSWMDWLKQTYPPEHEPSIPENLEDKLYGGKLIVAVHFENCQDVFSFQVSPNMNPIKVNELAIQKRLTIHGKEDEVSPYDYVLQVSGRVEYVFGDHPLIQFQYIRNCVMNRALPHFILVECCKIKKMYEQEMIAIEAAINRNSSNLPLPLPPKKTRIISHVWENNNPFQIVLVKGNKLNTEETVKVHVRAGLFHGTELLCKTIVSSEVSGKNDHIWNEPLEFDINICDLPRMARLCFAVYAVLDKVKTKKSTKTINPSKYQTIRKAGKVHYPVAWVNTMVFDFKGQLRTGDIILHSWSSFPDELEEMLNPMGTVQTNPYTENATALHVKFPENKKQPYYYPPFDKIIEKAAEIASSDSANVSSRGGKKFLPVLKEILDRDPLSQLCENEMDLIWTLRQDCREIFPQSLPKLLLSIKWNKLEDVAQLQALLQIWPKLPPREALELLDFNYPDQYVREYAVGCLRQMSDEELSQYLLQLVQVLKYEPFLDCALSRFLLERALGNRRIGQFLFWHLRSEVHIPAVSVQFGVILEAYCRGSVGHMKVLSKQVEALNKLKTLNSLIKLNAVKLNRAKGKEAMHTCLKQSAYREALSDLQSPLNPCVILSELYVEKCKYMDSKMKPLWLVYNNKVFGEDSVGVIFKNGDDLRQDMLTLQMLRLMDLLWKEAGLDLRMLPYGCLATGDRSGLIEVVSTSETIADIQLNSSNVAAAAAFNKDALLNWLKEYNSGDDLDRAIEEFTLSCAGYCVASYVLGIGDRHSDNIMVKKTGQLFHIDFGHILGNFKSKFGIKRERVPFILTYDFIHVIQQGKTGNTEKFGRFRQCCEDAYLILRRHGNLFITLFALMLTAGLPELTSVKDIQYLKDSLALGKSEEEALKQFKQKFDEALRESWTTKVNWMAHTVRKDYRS

[2] = biological target: Phosphatidylinositol 4,5-bisphosphate 3-kinase catalytic subunit alpha isoform (Homo sapiens, UniProt P42336); test: Inhibition of human PI3Kalpha after 15 mins
Chain of Phosphatidylinositol 4,5-bisphosphate 3-kinase catalytic subunit alpha isoform (P42336 whole entry, canonical isoform): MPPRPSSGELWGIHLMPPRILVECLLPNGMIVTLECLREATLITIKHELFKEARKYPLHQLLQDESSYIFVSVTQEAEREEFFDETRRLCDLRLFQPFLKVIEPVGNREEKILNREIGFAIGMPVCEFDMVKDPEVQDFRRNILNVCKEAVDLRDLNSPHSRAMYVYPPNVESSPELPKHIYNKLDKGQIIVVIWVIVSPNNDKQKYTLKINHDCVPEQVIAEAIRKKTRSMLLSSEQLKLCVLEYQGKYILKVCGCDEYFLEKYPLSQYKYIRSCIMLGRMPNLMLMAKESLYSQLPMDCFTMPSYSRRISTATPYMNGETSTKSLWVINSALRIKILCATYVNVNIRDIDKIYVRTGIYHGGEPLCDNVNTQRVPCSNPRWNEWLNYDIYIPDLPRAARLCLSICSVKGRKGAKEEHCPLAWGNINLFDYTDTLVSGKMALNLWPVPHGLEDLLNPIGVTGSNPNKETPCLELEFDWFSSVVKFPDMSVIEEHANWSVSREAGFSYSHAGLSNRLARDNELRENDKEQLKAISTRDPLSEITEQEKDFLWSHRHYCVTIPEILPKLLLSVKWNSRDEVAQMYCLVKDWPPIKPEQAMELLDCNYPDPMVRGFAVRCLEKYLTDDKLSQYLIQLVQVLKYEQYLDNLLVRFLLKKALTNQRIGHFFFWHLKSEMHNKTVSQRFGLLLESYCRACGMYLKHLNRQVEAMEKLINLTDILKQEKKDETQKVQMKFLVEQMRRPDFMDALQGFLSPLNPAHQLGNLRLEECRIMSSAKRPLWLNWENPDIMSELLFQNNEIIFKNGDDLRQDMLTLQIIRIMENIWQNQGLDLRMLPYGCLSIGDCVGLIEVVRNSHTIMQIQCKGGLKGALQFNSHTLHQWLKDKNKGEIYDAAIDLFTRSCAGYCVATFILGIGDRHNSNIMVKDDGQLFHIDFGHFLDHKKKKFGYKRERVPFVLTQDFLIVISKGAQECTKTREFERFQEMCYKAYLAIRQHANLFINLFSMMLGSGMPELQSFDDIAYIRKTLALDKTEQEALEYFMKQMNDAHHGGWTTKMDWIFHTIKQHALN

[3] = biological target: Phosphatidylinositol 4,5-bisphosphate 3-kinase catalytic subunit gamma isoform (Homo sapiens, UniProt P48736); test: Inhibition of human PI3Kgamma after 15 mins
Chain of Phosphatidylinositol 4,5-bisphosphate 3-kinase catalytic subunit gamma isoform (P48736 whole entry, canonical isoform): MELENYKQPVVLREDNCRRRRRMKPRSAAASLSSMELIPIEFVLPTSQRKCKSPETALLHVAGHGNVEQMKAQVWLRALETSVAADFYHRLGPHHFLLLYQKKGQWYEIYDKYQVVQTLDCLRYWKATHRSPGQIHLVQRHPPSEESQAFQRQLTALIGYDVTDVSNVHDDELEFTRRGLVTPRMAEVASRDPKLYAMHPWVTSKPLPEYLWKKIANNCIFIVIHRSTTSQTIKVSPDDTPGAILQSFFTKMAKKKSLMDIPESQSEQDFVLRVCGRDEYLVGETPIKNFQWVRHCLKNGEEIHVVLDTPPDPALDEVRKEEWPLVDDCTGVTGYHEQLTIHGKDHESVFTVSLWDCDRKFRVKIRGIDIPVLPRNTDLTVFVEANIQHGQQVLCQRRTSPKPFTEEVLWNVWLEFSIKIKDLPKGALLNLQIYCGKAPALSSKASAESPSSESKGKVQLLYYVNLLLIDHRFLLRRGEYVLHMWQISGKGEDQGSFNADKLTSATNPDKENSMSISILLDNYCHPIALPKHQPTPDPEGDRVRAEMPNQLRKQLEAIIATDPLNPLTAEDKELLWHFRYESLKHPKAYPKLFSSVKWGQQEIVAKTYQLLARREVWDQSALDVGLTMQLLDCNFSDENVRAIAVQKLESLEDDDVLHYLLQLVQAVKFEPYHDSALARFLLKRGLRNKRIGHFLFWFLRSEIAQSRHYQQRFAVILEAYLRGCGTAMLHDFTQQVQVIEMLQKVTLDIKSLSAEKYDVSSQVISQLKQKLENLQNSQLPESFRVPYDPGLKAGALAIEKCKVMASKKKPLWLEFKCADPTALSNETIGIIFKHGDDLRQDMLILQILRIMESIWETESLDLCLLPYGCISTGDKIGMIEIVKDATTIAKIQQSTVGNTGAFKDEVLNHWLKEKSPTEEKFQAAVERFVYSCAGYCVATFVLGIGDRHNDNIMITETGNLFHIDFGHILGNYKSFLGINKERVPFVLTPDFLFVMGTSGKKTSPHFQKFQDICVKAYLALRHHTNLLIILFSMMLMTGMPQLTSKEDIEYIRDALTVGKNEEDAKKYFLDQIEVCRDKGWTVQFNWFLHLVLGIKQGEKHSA

[4] = Thermodynamic solubility of the compound in 50 mM Phosphate buffer at pH 7.4 after 16 hrs by HPLC analysis; type: physicochemical; details: phosphate buffer, pH 7.4; read-out: Therm_solubility
[5] = (§1) Drug metabolism in human liver microsomes assessed as compound lability; type: ADME; details: liver microsomes, read-out: Drug metabolism
[6] = Drug metabolism in mouse liver microsomes assessed as compound lability; type: ADME, Microsome; details: for metabolised: liver microsomes, read-out: Drug metabolism; for Drug metabolism: microsomes
[7] = biological target: T1, Phosphatidylinositol 4,5-bisphosphate 3-kinase catalytic subunit beta isoform; test: Inhibition of PI3Kbeta in human PTEN-deficient PC3 cells assessed as Akt phosphorylation at S473; type: cell-based, PC-3
[8] = biological target: T2, Phosphatidylinositol 4,5-bisphosphate 3-kinase catalytic subunit delta isoform (Homo sapiens, UniProt O00329); test: Inhibition of human PI3Kdelta after 15 mins
T2 sequence (O00329 whole entry): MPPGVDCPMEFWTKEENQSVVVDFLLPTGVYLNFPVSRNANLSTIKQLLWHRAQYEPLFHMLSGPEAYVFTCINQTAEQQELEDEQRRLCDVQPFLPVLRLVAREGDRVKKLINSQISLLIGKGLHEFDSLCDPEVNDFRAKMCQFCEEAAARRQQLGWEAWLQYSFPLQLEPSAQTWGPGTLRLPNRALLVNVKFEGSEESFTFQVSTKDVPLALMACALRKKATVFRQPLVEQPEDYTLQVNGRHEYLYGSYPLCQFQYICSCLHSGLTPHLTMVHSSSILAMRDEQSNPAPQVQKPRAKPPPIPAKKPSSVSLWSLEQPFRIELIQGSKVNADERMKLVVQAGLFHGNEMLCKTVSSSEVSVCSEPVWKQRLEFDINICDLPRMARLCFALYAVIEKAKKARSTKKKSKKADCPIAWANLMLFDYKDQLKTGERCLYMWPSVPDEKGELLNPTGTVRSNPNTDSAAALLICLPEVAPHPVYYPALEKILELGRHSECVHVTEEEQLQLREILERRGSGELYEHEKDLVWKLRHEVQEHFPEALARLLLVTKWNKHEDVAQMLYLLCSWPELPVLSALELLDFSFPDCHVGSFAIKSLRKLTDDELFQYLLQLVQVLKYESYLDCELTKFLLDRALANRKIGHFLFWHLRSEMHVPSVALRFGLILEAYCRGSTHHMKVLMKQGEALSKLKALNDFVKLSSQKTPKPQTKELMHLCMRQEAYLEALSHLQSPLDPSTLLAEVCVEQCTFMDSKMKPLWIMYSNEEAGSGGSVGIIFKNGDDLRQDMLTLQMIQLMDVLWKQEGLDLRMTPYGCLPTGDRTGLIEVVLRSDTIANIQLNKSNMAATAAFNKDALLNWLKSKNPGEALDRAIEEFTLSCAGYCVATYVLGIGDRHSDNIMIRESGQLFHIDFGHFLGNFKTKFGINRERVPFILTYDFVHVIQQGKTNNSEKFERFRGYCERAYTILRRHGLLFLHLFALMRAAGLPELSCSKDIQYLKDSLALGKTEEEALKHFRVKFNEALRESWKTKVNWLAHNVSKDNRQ

Cytochrome P450 3A4 = Cytochrome P450 3A4 (Homo sapiens, UniProt P08684); test: Inhibition of human recombinant CYP3A4
Chain of Cytochrome P450 3A4 (P08684 whole entry): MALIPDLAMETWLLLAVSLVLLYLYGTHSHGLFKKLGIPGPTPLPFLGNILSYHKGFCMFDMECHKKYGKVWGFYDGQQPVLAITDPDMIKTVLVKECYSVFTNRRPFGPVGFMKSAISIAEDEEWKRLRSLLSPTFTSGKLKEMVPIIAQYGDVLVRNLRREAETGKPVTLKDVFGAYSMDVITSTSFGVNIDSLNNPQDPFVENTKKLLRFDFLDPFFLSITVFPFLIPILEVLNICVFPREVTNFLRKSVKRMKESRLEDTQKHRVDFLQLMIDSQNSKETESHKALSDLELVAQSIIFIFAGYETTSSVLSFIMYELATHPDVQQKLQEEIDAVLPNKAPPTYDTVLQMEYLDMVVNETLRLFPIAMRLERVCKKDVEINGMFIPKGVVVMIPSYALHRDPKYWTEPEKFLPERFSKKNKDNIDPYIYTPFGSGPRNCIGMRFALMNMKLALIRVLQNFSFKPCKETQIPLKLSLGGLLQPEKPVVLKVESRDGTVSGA

[9] = (§2) Apparent permeability of the compound in human Caco2 cells; type: ADME, cell-based; details: Caco-2
[10] = Plasma concentration in SCID mouse harboring human PTEN-deficient PC3 cells at 100 mg/kg, po after 16 hrs; type: ADME, organism-based, PC-3; set-up: dose 100 mg/kg, route oral
Mus musculus [11] = test: Inhibition of PI3Kbeta in SCID mouse harboring human PTEN-deficient PC3 cells assessed as Akt phosphorylation at S473 at 100 mg/kg, po after 16 hrs; type: functional, organism-based; set-up: dose 100 mg/kg; details: PC-3
[12] = Plasma concentration in SCID mouse harboring human PTEN-deficient PC3 cells at 100 mg/kg, po after 7 hrs; type: ADME, organism-based, PC-3; set-up: dose 100 mg/kg, route oral
[13] = Plasma concentration in SCID mouse harboring human PTEN-deficient PC3 cells at 100 mg/kg, po after 1 hr; type: ADME, organism-based, PC-3; set-up: dose 100 mg/kg, route oral
Mus musculus [14] = test: Inhibition of PI3Kbeta in SCID mouse harboring human PTEN-deficient PC3 cells assessed as Akt phosphorylation at S473 at 100 mg/kg, po after 1 hr; type: functional, organism-based; set-up: dose 100 mg/kg; details: PC-3
Mus musculus [15] = test: Inhibition of PI3Kbeta in SCID mouse harboring human PTEN-deficient PC3 cells assessed as Akt phosphorylation at S473 at 100 mg/kg, po after 7 hrs; type: functional, organism-based; set-up: dose 100 mg/kg; details: PC-3
[16] = Efflux ratio of permeability from basolateral to apical side over apical to basolateral side in human Caco2 cells; type: ADME, cell-based; details: Caco-2
Mus musculus [17] = test: Inhibition of PI3Kbeta in SCID mouse harboring human PTEN-deficient PC3 cells assessed as Akt phosphorylation at S473 at 150 mg/kg, po after 7 hrs; type: functional, organism-based; set-up: dose 150 mg/kg; details: PC-3
Mus musculus [18] = test: Inhibition of PI3Kbeta in SCID mouse harboring human PTEN-deficient PC3 cells assessed as Akt phosphorylation at S473 at 150 mg/kg, po after 16 hrs; type: functional, organism-based; set-up: dose 150 mg/kg; details: PC-3
Mus musculus [19] = test: Inhibition of PI3Kbeta in SCID mouse harboring human PTEN-deficient PC3 cells assessed as Akt phosphorylation at S473 at 150 mg/kg, po after 1 hr; type: functional, organism-based; set-up: dose 150 mg/kg; details: PC-3
Caco-2 = test: as §2; type: ADME, cell-based
Liver microsome = test: as §1; type: ADME; details: microsomes

Row | Structure (SMILES) | IC50 [1] [nM] | IC50 [2] [nM] | IC50 [3] [nM] | solubility thermodynamic at 16 h [4] [µM] | metabolised [5] [%] | metabolised [6] [%] | IC50 [7] [nM] | IC50 [8] [nM] | IC50 (Cytochrome P450 3A4) [nM] | Papp [9] [×10⁻⁶ cm/s] | further results
1 | NC(=O)c1sc(N2CCOCC2)nc1CC(=O)N1CCc2c(F)cccc21 | 138 | 7230 | > 10000 |  |  |  | 38 | 485 |  |  | 
2 | CC1Cc2cc(F)ccc2N1C(=O)Cc1nc(N2CCOCC2)sc1C(=O)O (centres undefined) | 15 | > 10000 | > 10000 | 4930 (≈ 2000 µg/mL) | 3 | 3 | 817 | 219 | 40000 | 0.9 | 
3 | NC(=O)c1sc(N2CCOCC2)nc1CC(=O)N1CCc2cc(F)ccc21 | 22 | 6970 | > 10000 | 7 (≈ 2.73 µg/mL) | 17 | 22 | 15 | 134 | 40000 | 22.2 | concentration at 16 h [10]: 4 nM; inhibition (Mus musculus [11]): Active; concentration at 7 h [12]: 40 nM; concentration at 1 h [13]: 310 nM; inhibition (Mus musculus [14]): Active; inhibition (Mus musculus [15]): Active
4 | NC(=O)c1sc(N2CCOCC2)nc1CC(=O)N1CCc2c(Br)cccc21 | 11 | 2150 | 8130 | 2 (≈ 0.903 µg/mL) | 57 | 63 | 22 | 178 | 40000 | 24.7 | 
5 | O=C(O)c1sc(N2CCOCC2)nc1CC(=O)N1CCc2cc(Br)ccc21 | 308 | > 10000 | > 10000 |  |  |  | 3000 | 1000 |  |  | 
6 | O=C(O)c1sc(N2CCOCC2)nc1CC(=O)N1CCc2c(Br)cccc21 | 11 | 1120 | > 10000 |  | 8 | 0 | 1780 | 133 | 40000 | 0.2 | 
7 | CC1Cc2ccccc2N1C(=O)Cc1nc(N2CCOCC2)sc1C(=O)O (racemic) | 340 | > 10000 | > 10000 |  |  |  | 2310 | 2720 |  |  | 
8 | O=C(O)c1sc(N2CCOCC2)nc1CC(=O)N1CCc2c(Cl)cccc21 | 23 | 2210 | > 10000 | 1480 (≈ 602 µg/mL) | 1 | 9 | 2000 | 245 | 40000 | 0.7 | 
9 | NC(=O)c1sc(N2CCOCC2)nc1CC(=O)Nc1ccc(F)c(Cl)c1 | 45 | 8280 | > 10000 |  |  |  |  | 227 |  |  | 
10 | O=C(O)c1sc(N2CCOCC2)nc1CC(=O)N1CCc2cc(F)ccc21 | 25 | > 10000 | > 10000 | 5110 (≈ 2000 µg/mL) | 1 | 1 | 1730 | 64 | 40000 | 0.4 | efflux ratio [16]: 13
11 | CC1Cc2c(Br)cccc2N1C(=O)Cc1nc(N2CCOCC2)sc1C(=O)O (single isomer, unassigned; enantiomer 1) |  |  |  |  |  |  |  |  |  |  | inhibition (Mus musculus [17]): Active; inhibition (Mus musculus [18]): Active; inhibition (Mus musculus [19]): Active
12 | NC(=O)c1sc(N2CCOCC2)nc1CC(=O)N1CCc2cc(Cl)ccc21 | 166 | > 10000 | > 10000 |  |  |  | 110 | 1860 |  |  | 
13 | O=C(O)c1sc(N2CCOCC2)nc1CC(=O)N1CCc2ccccc21 | 270 | > 10000 | > 10000 |  |  |  | 1420 | 1550 |  |  | 
14 | NC(=O)c1sc(N2CCOCC2)nc1CC(=O)N1CCc2ccccc21 | 71 | 4080 | > 10000 | 3 (≈ 1.12 µg/mL) | 35 | 44 | 25 | 230 | 40000 | 16 | 
15 | NC(=O)c1sc(N2CCOCC2)nc1CC(=O)N1CCc2cc(Br)ccc21 | 240 | > 10000 | > 10000 |  |  |  | 420 | 483 |  |  | 
16 | CC1CN(C(=O)Cc2nc(N3CCOCC3)sc2C(N)=O)c2ccccc21 (racemic) | 130 | > 10000 | 4200 |  |  |  | 75 | 567 |  |  | 

The next lines start with results.

Row | IC50 [1] [nM] | IC50 [2] [nM] | IC50 [3] [nM] | solubility thermodynamic at 16 h [4] [µM] | metabolised [5] [%] | metabolised [6] [%] | IC50 [7] [nM] | IC50 [8] [nM] | IC50 (Cytochrome P450 3A4) [nM] | Papp [9] [×10⁻⁶ cm/s] | Structure (SMILES) | further results
17 | 49 | 6330 | > 10000 | 2 (≈ 0.814 µg/mL) | 40 | 61 | 122 | 277 | 40000 |  | NC(=O)c1sc(N2CCOCC2)nc1CC(=O)N1CCc2c(Cl)cccc21 | 
18 | 20 | > 10000 | > 10000 | 45 (≈ 18.2 µg/mL) | 42 | 48 | 14 | 127 | 40 | 19.3 | CC1Cc2cc(F)ccc2N1C(=O)Cc1nc(N2CCOCC2)sc1C(N)=O (centres undefined) | 
19 | 8 | > 10000 | > 10000 | 4740 (≈ 2000 µg/mL) | 8 | 17 | 876 | 149 | 40000 | 0.9 | CC1Cc2c(Cl)cccc2N1C(=O)Cc1nc(N2CCOCC2)sc1C(=O)O (centres undefined) | 
20 | 10 | > 10000 | > 10000 | 2 (≈ 0.842 µg/mL) | 77 | 70 | 13 | 58 |  | 29.6 | CC1Cc2c(Cl)cccc2N1C(=O)Cc1nc(N2CCOCC2)sc1C(N)=O (centres undefined) | 
21 | 178 | > 10000 | > 10000 |  |  |  | 40 | 435 |  |  | CC1Cc2ccccc2N1C(=O)Cc1nc(N2CCOCC2)sc1C(N)=O (racemic) | 
22 | 84 | 3110 | 10000 | 4290 (≈ 2000 µg/mL) | 0 |  | 307 | 861 | 40000 |  | CC1Cc2c(Br)cccc2N1C(=O)Cc1nc(N2CCOCC2)sc1C(=O)O (single isomer, unassigned; enantiomer 2) | Papp (Caco-2): 0.4 ×10⁻⁶ cm/s; Drug metabolism [6]: 7%
23 | 58 | 1320 | > 10000 |  |  |  | 17 | 430 | 40000 |  | CC1Cc2c(Br)cccc2N1C(=O)Cc1nc(N2CCOCC2)sc1C(N)=O (single isomer, unassigned; enantiomer 2) | Drug metabolism (Liver microsome): 75%; Papp (Caco-2): 20.7 ×10⁻⁶ cm/s; Drug metabolism [6]: 67%
24 | 13 | 1320 | 3260 |  | 85 |  | 3 | 92 | 25000 | 20.9 | CC1Cc2c(Br)cccc2N1C(=O)Cc1nc(N2CCOCC2)sc1C(N)=O (single isomer, unassigned; (-)) | Drug metabolism [6]: 89%
